Source: paper PMC4805166, “Synthetic Cyclolipopeptides Selective against Microbial, Plant and Animal Cell Targets by Incorporation of D-Amino Acids or Histidine” (PLoS ONE, 2016)
Several values for one entry are separate records, joined by “and”; a condition that tells them apart may be missing. Equal values may be shown once. Read-outs that look alike come from different tables or passages of the source. Where a SMILES comes first, the peptide text is derived from it. [ ]: non-standard residue; d: D form. The star is where a group is joined. Hexanoyl = CCCCCC(=O)*; Butyryl = CCCC(=O)*

Tests used:
[1] = test system: E. amylovora, P. syringae pv. syringae, X. axonopodis pv. vesicatoria and F. oxysporum; type: cell-based; details: three of the four pathogens tested
Method: The following plant pathogenic bacterial strains were used: Erwinia amylovora PMV6076 (Institut National de la Recherche Agronomique, Angers, France), Pseudomonas syringae pv. syringae EPS94 (Institut de Tecnologia Agroalimentària, Universitat de Girona, Spain) and Xanthomonas axonopodis pv. vesicatoria 2133–2 (Instituto Valenciano de Investigaciones Agrarias, Valencia, Spain). All bacteria were stored in Luria Bertani (LB) broth supplemented with glycerol (20%) and maintained at -80°C. Bacteria were scrapped from LB agar after growing for 24–48 h at 25°C. The cell material was suspended in sterile water to obtain a suspension of 10^8 CFU mL^-1.
Fusarium oxysporum f. sp. lycopersici FOL 3 race 2 (ATCC 201829, American Type Culture Collection) was used as fungal pathogen. The strain was cultured on potato dextrose agar (PDA) plates (Difco) and microconidia were obtained after growth at 25°C. The concentration of conidia was determined using a hemacytometer and adjusted to 10^4 conidia mL^-1.
Lyophilized peptides were solubilized in sterile Milli-Q water to a final concentration of 1 mM and filter sterilized through a 0.22-μm pore filter. For minimum inhibitory concentration (MIC) assessment, dilutions of the compounds were made to obtain a stock concentration of […]. For antibacterial activity twenty microlitres of each dilution were mixed in a microtiter plate well with 20 μL of the corresponding suspension of the bacterial indicator, 160 μL of Trypticase Soy Broth (TSB) (BioMèrieux, France) to a total volume of 200 μL. For antifungal activity 20 μL of each stock solution were mixed in a microtiter plate well with 80 μL of the corresponding suspension of the fungal pathogen and 100 μL of double concentrated PDB to a total volume of 200 μL containing 0.003% w/v of choramphenicol.
Three replicates for each strain, compound and concentration were used. Microbial growth was determined by optical density measurement at 600 nm (Bioscreen C, Labsystem, Helsinki, Finland). For antibacterial activity microplates were incubated at 25°C with 20 sec shaking before hourly absorbance measurement for 48 h. For antifungal activity microplates were incubated at 20°C with 1 min shaking before absorbance measurement that were done every two hours during seven days. The experiment was repeated twice. The MIC was taken as the lowest compound concentration with no growth at the end of the experiment.

[2] = test system: erythrocyte suspensions of horse blood; details: horse erythrocytes 5% vol/vol, TRIS buffer pH 7.2, 1 h at 37°C, absorbance 540 nm, relative to melittin 100 μM, ± confidence interval (α = 0.05); for Hemolysis (%) 150 µM: 150 µM peptide; for Hemolysis (%) 250 µM: 250 µM peptide;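 as to all read-outs here: Read-out is hemoglobin release into the supernatant, with a buffer-only blank subtracted as the 0% baseline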
[3] = test system: Pseudomonas syringae pv. syringae EPS94; type: cell-based; details: 48 h
How it was run: (§1)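 Peptide dilutions (stocks 500–31.1 μM) mixed 1:10 with 10^8 CFU/mL bacterial suspension in TSB. Incubated 25 °C, OD600 read hourly for 48 h, triplicates, repeated twice. MIC: lowest concentration with no growth at end.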

[4] = test system: Xanthomonas axonopodis pv. vesicatoria 2133–2; type: cell-based; details: TSB, 25°C, 48 h, OD 600 nm; tested at 3.1, 6.2, 12.5, 25, 50 μM; three replicates, experiment repeated twice; MIC = lowest concentration with no growth
How it was run: as §1

[5] = test system: X. axonopodis pv. vesicatoria; assay: Bactericidal activity (killing assay); type: cell-based, Xanthomonas axonopodis pv. vesicatoria; details: 5 μM peptide, LB broth, aliquots every 30 min during 3 h, viable counts; triplicates
Method: In a total volume of 5 mL, 4 mL of Luria-Bertani (LB) broth were mixed with 0.5 ml of a suspension of X. axonopodis pv. vesicatoria adjusted to 10^8 CFU mL^-1 and 0.5 mL of the peptide solution at 50 μM (final concentration at 5 μM). Aliquots of 500 μL were removed at 30-min intervals during 3 h and the appropriate dilutions were spread onto LB agar using a spiral plater (Eddy Jet; IUL instruments, Spain). Triplicates were performed and colonies were counted after 48 h of incubation at 25°C with an automatic counter (Flash and Go; IUL instruments, Spain) by incorporating the software CounterMat version 5.0.

[6] = test system: Fusarium oxysporum f. sp. lycopersici FOL 3 race 2; assay: MIC, antifungal growth inhibition; type: cell-based
How it was run: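 Microconidia are grown on PDA at 25 °C and adjusted to 10^4 conidia/mL. Peptide stocks of 500, 250, 125, 62.5 and 31.1 µM (stock, not final) are mixed with conidia in double-concentrated PDB with 0.003% chloramphenicol, in triplicate, and incubated at 20 °C. OD600 is read every 2 h for seven days, and MIC is the lowest concentration with no growth at the end.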

[7] = test system: Erwinia amylovora PMV6076; assay: MIC, in vitro growth inhibition; type: cell-based; details: TSB, 25°C, 48 h, OD 600 nm; tested at 3.1, 6.2, 12.5, 25, 50 μM; three replicates, experiment repeated twice; MIC = lowest concentration with no growth
How it was run: as §1

tobacco leaves = assay: Phytotoxicity by infiltration of tobacco leaves; type: in vivo; details: 250 μM, 100 μL infiltrated into mesophyll of tobacco leaves, 48 h after infiltration; at least three inoculations
Method: Peptide solutions of 50, 100, 150 and 250 μM were infiltrated (100 μL) into the mesophylls of fully expanded tobacco leaves. Six independent inoculations were carried out in a single leaf, and at least three independent inoculations were performed per peptide and concentration randomly distributed in diferent leaves and plants. Control infiltrations with water (negative control) or mellitin (positive control) at the same molar concentration were performed. The appearance of symptoms on the leaves was followed for 48 h after infiltration and measured as a lesion diameter.

[8] = PDB with 0.003% chloramphenicol, 20°C, seven days, OD 600 nm, tested at 3.1, 6.2, 12.5, 25, 50 μM, three replicates, repeated twice

Molecule | MIC against three pathogens [1] [µM] | Hemolysis (%) 150 µM [2] [%] | Hemolysis (%) 250 µM [2] [%] | MIC Pss [3] [µM] | MIC Xav [4] | Bactericidal activity (kinetics of survival) [5] | MIC Fo [6, 8] [µM] | MIC Ea [7] [µM] | MIC Fo [6] [µM] | Phytotoxicity, size of the lesions (necrosis diameter) (tobacco leaves)
CCCC(=O)NCCCC[C@@H]1NC(=O)[C@H](CCCCN)NC(=O)[C@H](CC(C)C)NC(=O)[C@H](CCCCN)NC(=O)[C@H](CCCCN)NC(=O)[C@H](CCC(N)=O)NC(=O)[C@H](CC(C)C)NC(=O)[C@H](CCCCN)NC(=O)[C@H](CCCCN)NC(=O)[C@H](Cc2ccccc2)NC1=O [BPC500, c(KKLKK(CO-C3H7)FKKLQ)] (cyclo(FKKLQKKLKK(Butyryl))) | < 12.5 | 28 ± 5 | 38 ± 4 | 6.2 to 12.5 | <3.1 µM | bactericidal activity | <3.1 | 12.5 to 25 |  | 
CCCC(=O)NCCCC[C@H]1NC(=O)[C@H](CCC(N)=O)NC(=O)[C@H](CC(C)C)NC(=O)[C@H](CCCCN)NC(=O)[C@H](CCCCN)NC(=O)[C@H](Cc2ccccc2)NC(=O)[C@H](CCCCN)NC(=O)[C@H](CCCCN)NC(=O)[C@H](CC(C)C)NC(=O)[C@H](CCCCN)NC1=O [BPC706] (cyclo(FKKLQ[dK](Butyryl)KLKK)) |  | 35 ± 3 | 46 ± 3 | 6.2 to 12.5 | 3.1 to 12.5 µM and 6.2 to 12.5 µM |  | 3.1 to 6.2 | 25 to 50 | 3.1 to 6.2 | 0–0.38 cm
CCCCCC(=O)NCCCC[C@@H]1NC(=O)[C@H](CCC(N)=O)NC(=O)[C@H](CC(C)C)NC(=O)[C@H](CCCCN)NC(=O)[C@H](CCCCN)NC(=O)[C@H](Cc2c[nH]cn2)NC(=O)[C@H](CCCCN)NC(=O)[C@H](CCCCN)NC(=O)[C@H](CC(C)C)NC(=O)[C@H](CCCCN)NC1=O [BPC688] (cyclo(HKKLQK(Hexanoyl)KLKK)) |  | 1 ± 2 | 1 ± 0.2 | 25 to 50 | 25 to 50 µM |  | 12.5 to 25 | >50 |  | 0–0.38 cm
melittin [mellitin, reference compound] |  |  |  |  |  |  |  |  |  | around 2 cm
